Assay results: publication PMC4885035, “Pathway for Biodegrading Nodularin (NOD) by Sphingopyxis sp. USTB-05” (Toxins, 2016)

System: crude enzymes (CEs) of Sphingopyxis sp. USTB-05
Format: in vitro ADME
Conditions: NOD 11.6 mg/L with CEs 570 mg/L protein, 30 °C, HPLC-UV 238 nm; for fate of the biodegradation product in the presence of CEs: followed to 36 h
Description: Bacterial cells of USTB-05 in the logarithmic growth phase of the third day were harvested by centrifugation at 8000 r/min for 20 min at room temperature. The bacterial pellet was subsequently washed three times with 50 mM phosphate buffer solution (PBS, pH 7.0). Afterwards, the cells were resuspended in 30 mL PBS, and then disrupted using an ultrasonic disruptor with an output power of 600 W for 15 min in an ice bath. […].
The total biodegradation reaction volume was 5 mL containing 570 mg/L, 380 mg/L, and 211 mg/L proteins in PBS in each 10 mL centrifuge tube, respectively. […]. The reaction was performed at 30 °C and 200 r/min. Samples of 500 μL for each were taken after 0, 3, 6, 12, 24, and 36 h, respectively, and then 5 μL of concentrated hydrochloric acid (36%, v/v) was added to stop the reaction. A control bottle was prepared in the same way without CEs. All samples were centrifuged at 13,000 r/min for 10 min and then the concentrations of residual NOD and its products in supernatants were analyzed using HPLC. All experiments were carried out in triplicate.
NOD and its enzymatic biodegradation products were firstly analyzed using a HPLC system (Shimadzu LC-10ATVP, Shimadzu Co., Ltd., Kyoto, Japan) with an ultraviolet (UV) Diode Array Detector at 238 nm using a Agilent TC-C18 column (4.6 mm × 250 mm) (Agilent Technologies Inc., 1200 series, Santa Clara, CA, USA). […]. The flow rate was 1 mL/min and the injection amount was 20 μL. The concentration of NOD was determined by calibration of peak area (at 238 nm) with that of the standard NOD. The biodegradation products that contained Adda were monitored by HPLC based on the assumption that their molar absorption coefficient at 238 nm is the same as NOD.

SMILES | time at which the product peak appeared on HPLC during enzymatic biodegradation of NOD [h] | fate of the biodegradation product in the presence of CEs
CC=C(C(=O)N[C@@H](C(=O)O)[C@H](C)C(=O)N[C@@H](CCCNC(=N)N)C(=O)O)N(C)C(=O)CC[C@@H](NC(=O)[C@@H](C)[C@@H](N)/C=C/C(C)=C/[C@H](C)[C@H](Cc1ccccc1)OC)C(=O)O [product A] | 3 | completely converted to product B
CO[C@@H](Cc1ccccc1)[C@@H](C)/C=C(C)/C=C/[C@H](N)[C@H](C)C(=O)O [product B, (2S,3S,8S,9S)-3-amino-9-methoxy-2,6,8-trimethyl-10-phenyldeca-4(E),6(E)-dienoic acid] | 6 | always increased over time until 36 h
